As a reminder, the CC50 is the concentration at which the toxic effect on the cells reaches its halfway point. One may read the IC50 as the midpoint of a concentration-inhibition curve. A lower IC50 goes with higher potency.

CC50 and IC50 data for 1 compound are collected here from ChEMBL document CHEMBL1128330, “Anti-human immunodeficiency virus and anti-hepatitis-B virus activities and toxicities of the enantiomers of 2'-deoxy-3'-oxa-4'-thiocytidine and their 5-fluoro analogues in vitro” (J Med Chem, 1995).

Each structure is given as a SMILES string.

What all share (conditions): Homo sapiens
For test [1], the system named is Jurkat. In words: Cytotoxic concentration against HIV-1 infected Jurkat cell lines. The format is functional.
Test [2] can be described thus: Drug concentration which inhibits 50% of growth of cord blood mononuclear cells (CBMCs). The format is functional.
In test [3] the test system is CCRF-CEM. In words: Cytotoxic concentration against HIV-1 infected CEM cell lines. It counts as functional.
For test [4], the system named is MT4. Nature of the test: Inhibitory concentration against HIV-1 infected MT-4 cell lines. The format is functional, cell-based.
The subject of test [5] is U-937. In words: Cytotoxic concentration against HIV-1 infected U937 cell lines. It counts as functional.
Test [6] has as its system H9. In words: Inhibitory concentration against HIV-1 infected H9 cell lines. The format is functional, cell-based.
For test [7], the system named is H9. Nature of the test: Cytotoxic concentration against HIV-1 infected H9 cell lines. It counts as functional.
The subject of test [8] is U-937. Nature of the test: Inhibitory concentration against HIV-1 infected U937 cell lines. It counts as functional, cell-based.
Test [9] has as its system MT4. Nature of the test: Cytotoxic concentration against HIV-1 infected MT-4 cell lines. The format is functional.
The test system of test [10] is Jurkat. In words: Inhibitory concentration against HIV-1 infected Jurkat cell lines. The format is functional, cell-based.
In test [11] the test system is CCRF-CEM. In words: Inhibitory concentration against HIV-1 infected CEM cell lines. It counts as functional, cell-based.

For the compound `Cc1cn([C@H]2C[C@H](N=[N+]=[N-])[C@@H](CO)O2)c(=O)[nH]c1=O` [ZIDOVUDINE], the CC50 with Jurkat [1] is greater than 500 µM; in test [2] it was 45 µM; in the test with CCRF-CEM [3], 500 µM; in the test on U-937 [5], 110 µM; with H9 [7] it was 200 µM; in the test on MT4 [9] it was 110 µM. The IC50 in the test with MT4 [4] came to 0.005 µM; with H9 [6] it was 0.07 µM; in the test with U-937 [8] it was 0.04 µM; with Jurkat [10], 0.01 µM; in the test on CCRF-CEM [11], 0.01 µM.
